The text below walks through data of patent US11352350B2, “IRAK degraders and uses thereof” (Kymera Therapeutics, Inc., priority 2018, dated 2022).

Test [1] has as its target T1, IRAK4 (Homo sapiens (Human), UniProt Q9NWZ3). Briefly: IRAK4 degradation in human whole blood monocyte - flow cytometry. In kind it is cell-based. The settings on record: read-out: IRAK4 degradation in whole blood monocyte-Flow cytometry: Average external Abs IC50. As to the method:
(§1) Human whole blood IRAK4 degradation flow assay. Whole blood was collected in heparinized tubes and plated on the same day as draw (day 0). Whole blood was aliquoted into deep well plates. Compound plates were prepared and a 10 point, 5-fold dilution was performed with a final DMSO concentration of 0.1%. Compound was added to whole blood deep well plate, sealed and incubated at 37° C., 5% CO2 for 20 hours (for 4 hour treatment, compounds were prepared and added the following day). Following the treatment incubation period (day 1), BD lyse fix (BD #558049) was added to the whole blood plate, placed on plate shaker for 30 seconds and incubated for 10 mins at room temperature. Whole blood was then spun down and washed two times with PBS/0.5% BSA, aspirated to pellet and placed into −80° C. freezer until further processing for flow. On the flow run day, whole blood plates were thawed and samples were transferred to PCR plates. The pre-perm staining cocktail (CD3 Ax488/CD8 BUV805/CD14 BUV395/CD16/56 BV711/CD19 BV785) was added to samples and incubated for 30 minutes at room temperature. Samples were washed two times and permeabilized with Methanol for 10 minutes at 4° C. Samples were washed two times and the post-perm staining cocktail (CD4 PE/IRAK4 Ax647 BD #560315) was added and incubated for 30 minutes at room temperature. Samples were washed two times with PBS/BSA and run on a BD LSRFortessa. Mononuclear cells are gated by SSCH/FSCH and single cells. Monocytes are then gated through CD14 positive gate and lymphocytes are gated through CD14 negative gate. To determine absolute DC50 and max degradation values, MFI values were normalized to DMSO max and 20 hour 10 μM min control. Twenty hour dose curves were calculated using a 4 parameter logistic regression curve fit, no constraints (Top doses were removed if hook effects were observed and the bottom was constrained to 0).
For orientation: In flow cytometry, cells or beads pass a laser one at a time.

Test [2] has as its target T1, IRAK4. Briefly: IRAK4 degradation in human whole blood lymphocyte - flow cytometry. In kind it is cell-based. The following applies: read-out: IRAK4 degradation in whole blood lymphocyte-Flow cytometry: Average external Abs IC50. On the procedure: as §1
Test [3] addresses T1, IRAK4. Briefly: hPBMC IRAK4 degradation flow assay. In kind it is cell-based. The following applies: hPBMC monocyte, 20 hrs; read-out: IRAK4 degradation in hPBMC monocyte: DC50. A digest of the protocol: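 Thawed human PBMCs treated with 10-point, 5-fold compound dilutions (0.1% DMSO) at 37° C. for 20 hours or 4 hours. IRAK4 measured by flow MFI in CD14+ monocytes and CD14− lymphocytes, normalized to DMSO and 10 μM 20-hour control; DC50 and max degradation from 4-parameter logistic fit.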

The test system of another test is OCI-LY10. The experiment in a line: CTG Cell Viability Assay - OCI-LY10. The format is cell-based, human. The settings on record: Homo sapiens, OCI-Ly10, 96 h, OCI-LY10, 4 days; read-out: CTG Cell Viability Assay - OCI-LY10: Average external-IC50. A digest of the protocol: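 Viability read by CellTiter-Glo luminescence after 4 days at 37° C under 5% CO2 with compound (top 10 μM final, 1:3 steps, 9 doses, DMSO 0.2%). Three-parameter logistic fit gave IC50.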

The target of test [4] is T1, IRAK4. The experiment in a line: IRAK4 MSD degradation in OCI-LY10. In kind it is cell-based. The settings on record: OCI-LY10, 4 hrs; read-out: IRAK4 MSD degradation in OCI-LY10 at 4 hrs: DC50. In short, it runs like this: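 Remaining IRAK4 quantified by electrochemiluminescent MSD sandwich assay with two anti-IRAK4 antibodies. Compounds were dosed as 8 concentrations in 1:3 steps from a 1 to 10 μM final top on OCI-LY10 cells, incubated 4 to 24 h at 37° C. under 5% CO2. DC50 fitted with a three-parameter logistic curve.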

A further test concerns IL-6. Briefly: IL-6 secretion in hPBMC using R848 stimulation. In kind it is cell-based, human. The settings on record: Homo sapiens, 20 h, hPBMC, R848 as stim, t = 20 h.

T1 sequence (Q9NWZ3 whole entry): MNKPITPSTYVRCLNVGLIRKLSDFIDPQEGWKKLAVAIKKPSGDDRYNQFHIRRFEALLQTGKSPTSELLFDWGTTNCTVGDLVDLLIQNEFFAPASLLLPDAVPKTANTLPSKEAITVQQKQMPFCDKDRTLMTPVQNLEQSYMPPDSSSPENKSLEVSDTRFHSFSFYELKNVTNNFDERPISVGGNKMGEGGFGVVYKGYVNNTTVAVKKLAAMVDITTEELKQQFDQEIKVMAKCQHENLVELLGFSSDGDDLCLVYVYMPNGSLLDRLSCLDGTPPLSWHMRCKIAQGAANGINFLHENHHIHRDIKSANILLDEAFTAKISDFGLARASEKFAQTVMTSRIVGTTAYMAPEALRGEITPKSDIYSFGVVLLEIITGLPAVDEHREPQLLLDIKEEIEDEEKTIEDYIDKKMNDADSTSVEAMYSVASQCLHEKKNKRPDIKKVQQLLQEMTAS

Turning to `CC(C)c1nn([C@H]2CC[C@H](CN(C)C[C@@H]3CN(CCCc4ccc5c(c4)n(C)c(=O)n5C4CCC(=O)NC4=O)CCO3)CC2)cc1NC(=O)c1coc(-c2ccnc(NCC3CC3)c2)n1` (stereo partly drawn) [I-94, 2-[2-(Cyclopropylmethylamino)-4-pyridyl]-N-[1-[4-[[[(2R)-4-[3-[1-(2,6-dioxo-3-piperidyl)-3-methyl-2-oxo-benzimidazol-5-yl]propyl]morpholin-2-yl]methyl-methyl-amino]methyl]cyclohexyl]-3-isopropyl-pyrazol-4-yl]oxazole-4-carboxamide], the DC50 on IRAK4 [1] and on IRAK4 [2] was 0.1 to 0.5 µM each time.
For the compound `CN(CC(CCCOCCCc1cccc2c1n(C)c(=O)n2C1CCC(=O)NC1=O)C(=O)O)C[C@H]1CC[C@H](n2cc(NC(=O)c3cnn4ccc(N5C[C@H]6C[C@@H]5CO6)nc34)c(C(F)F)n2)CC1` (stereo partly drawn) [I-495, 2-[[[4-[3-(Difluoromethyl)-4-[[5-[(1R,4R)-2-oxa-5-azabicyclo [2.2.1]heptan-5-yl]pyrazolo [1,5-a]pyrimidine-3-carbonyl]amino]pyrazol-1-yl]cyclohexyl]methyl-methyl-amino]methyl]-5-[3-[1-(2,6-dioxo-3-piperidyl)-3-methyl-2-oxo-benzimidazol-4-yl]propoxy]pentanoic acid], the DC50 lay in the range of 0.01 to 0.1 µM at IRAK4 [3] and 0.1 to 1 µM at IRAK4 [4]. In addition, the IC50 (in general, the concentration that inhibits the measured activity by half) was over 1 µM in the test on OCI-LY10 and 0.01 to 0.1 µM with IL-6.
With `Cn1c(=O)n(C2CCC(=O)NC2=O)c2cccc(C#CCCCOCc3ccc(-n4cc(NC(=O)c5cnn6ccc(N7C[C@H]8C[C@@H]7CO8)nc56)c(C(F)F)n4)cc3)c21` (stereo partly drawn) [I-498, N-[3-(difluoromethyl)-1-[4-[5-[1-(2,6-dioxo-3-piperidyl)-3-methyl-2-oxo-benzimidazol-4-yl]pent-4-ynoxymethyl]phenyl]pyrazol-4-yl]-5-[(1R,4R)-2-oxa-5-azabicyclo [2.2.1]heptan-5-yl] pyrazolo[1,5-a]pyrimidine-3-carboxamide], the DC50 at IRAK4 [3] and on IRAK4 [4] was 0.1 to 1 µM in each case. In addition, the figures for the IC50 in the test on OCI-LY10 and in the test on IL-6 were over 1 µM and 0.01 to 0.1 µM, respectively.
For `Cc1ccc(-c2nn([C@H]3CC[C@H](C(=O)N4CCC5(CC4)CN(CCCc4cccc6c4n(C)c(=O)n6C4CCC(=O)NC4=O)C5)CC3)cc2NC(=O)c2cnn3cccnc23)nc1` (stereo partly shown) [I-499], the DC50 at IRAK4 [3] and at IRAK4 [4] was under 0.01 µM in each case. Moreover, the results for the 50% inhibitory concentration (IC50) in the test with OCI-LY10 and with IL-6 were over 1 µM and 0.001 to 0.01 µM, respectively.
As for `Cc1ccc(-c2nn([C@H]3CC[C@H](CN4CCC5(CC4)CN(CCCc4cccc6c4n(C)c(=O)n6C4CCC(=O)NC4=O)C5)CC3)cc2NC(=O)c2cnn3cccnc23)nc1` (stereo partly shown) [I-509], the DC50 at IRAK4 [3] and at IRAK4 [4] was 0.01 to 0.1 µM in each case. Further, the 50% inhibitory concentration (IC50) in the test on OCI-LY10 is over 1 µM; with IL-6, 0.001 to 0.01 µM.
For `Cn1c(=O)n(C2CCC(=O)NC2=O)c2cccc(CN3C[C@H]4CC[C@@H](C3)N4CC[C@H]3CC[C@H](n4cc(NC(=O)c5cnn6ccc(N7C[C@H]8C[C@@H]7CO8)nc56)c(C(F)F)n4)CC3)c21` (stereo partly shown) [I-511], the DC50 at IRAK4 [3] was under 0.01 µM; on IRAK4 [4], 0.01 to 0.1 µM. For the same compound, the IC50 with OCI-LY10 was over 1 µM; with IL-6 it was 0.001 to 0.01 µM.
For `Cn1c(=O)n(C2CCC(=O)NC2=O)c2cccc(CN3CCC(OC4CCN(C[C@H]5CC[C@H](n6cc(NC(=O)c7cnn8ccc(N9C[C@H]%10C[C@@H]9CO%10)nc78)c(C(F)F)n6)CC5)CC4)CC3)c21` (stereo partly shown) [I-513] the same measures were under 0.01 µM, under 0.01 µM, over 1 µM and under 0.001 µM.
As to `Cn1c(=O)n(C2CCC(=O)NC2=O)c2cccc(CC[C@@H]3CN(C[C@H]4CC[C@H](C5N=C(NC(=O)c6cnn7ccc(N8CCCOCC8)nc67)C(C(F)F)=N5)CC4)CCO3)c21` (stereo partly shown) [I-514], the DC50 at IRAK4 [3] and on IRAK4 [4] was under 0.01 µM each time. Besides, the figures for the 50% inhibitory concentration (IC50) with OCI-LY10 and in the test with IL-6 were over 1 µM and under 0.001 µM, respectively.
Take `Cn1c(=O)n(C2CCC(=O)NC2=O)c2cccc(CCCOC3CCN(C[C@H]4CC[C@H](n5cc(NC(=O)c6cnn7ccc(N8CCCOCC8)nc67)c(C(F)F)n5)CC4)CC3)c21` (stereo partly shown) [I-515]: the DC50 at IRAK4 [3] and on IRAK4 [4] was under 0.01 µM each time. Also, the values for the IC50 in the test on OCI-LY10 and in the test on IL-6 were over 1 µM and under 0.001 µM, respectively.
Take `Cn1c(=O)n(C2CCC(=O)NC2=O)c2cccc(CC[C@H]3CN(C[C@H]4CC[C@H](n5cc(NC(=O)c6cnn7ccc(N8CCCOCC8)nc67)c(C(F)F)n5)CC4)CCO3)c21` (stereo partly shown) [I-516]: the DC50 is under 0.01 µM at IRAK4 [3] and 0.01 to 0.1 µM on IRAK4 [4]. Besides, the values for the 50% inhibitory concentration (IC50) in the test on OCI-LY10 and in the test on IL-6 were over 1 µM and 0.001 to 0.01 µM, respectively.
`Cn1c(=O)n(C2CCC(=O)NC2=O)c2cccc(CCC3CCN(c4ccc(CN5CCC(n6cc(NC(=O)c7cnn8ccc(N9C[C@H]%10C[C@@H]9CO%10)nc78)c(C(F)F)n6)CC5)cc4)CC3)c21` (stereo partly shown) [I-517]: the DC50 at IRAK4 [3] was under 0.01 µM; on IRAK4 [4] it was 0.01 to 0.1 µM. In addition, the IC50 in the test on OCI-LY10 was over 1 µM; in the test on IL-6, 0.001 to 0.01 µM.
For `Cn1c(=O)n(C2CCC(=O)NC2=O)c2cccc(C#CCCCNC[C@H]3CC[C@H](n4cc(NC(=O)c5cnn6ccc(N7C[C@H]8C[C@@H]7CO8)nc56)c(C(F)F)n4)CC3)c21` (stereo partly drawn) [I-518, N-[3-(difluoromethyl)-1-[4-[[5-[1-(2,6-dioxo-3-piperidyl)-3-methyl-2-oxo-benzimidazol-4-yl]pent-4-ynylamino]methyl]cyclohexyl]pyrazol-4-yl]-5-[(1R)-2-oxa-5-azabicyclo[2.2.1]heptan-5-yl]pyrazolo[1,5-a]pyrimidine-3-carboxamide], in that order: under 0.01 µM, 0.01 to 0.1 µM, over 1 µM and 0.001 to 0.01 µM.
For `Cn1c(=O)n(C2CCC(=O)NC2=O)c2cccc(CCCC3CCN(C[C@H]4CC[C@H](n5cc(NC(=O)c6cnn7ccc(N8CCOC(C)(C)C8)nc67)c(C(F)F)n5)CC4)CC3)c21` (stereo partly shown) [I-525] the same measures were under 0.01 µM, 0.01 to 0.1 µM, over 1 µM and under 0.001 µM.
On to `Cn1c(=O)n(C2CCC(=O)NC2=O)c2cccc(OC3CC4(CCN(C[C@H]5CC[C@H](n6cc(NC(=O)c7cnn8ccc(N9C[C@H]%10C[C@@H]9CO%10)nc78)c(C(F)F)n6)CC5)CC4)C3)c21` (stereo partly shown) [I-526], for which the DC50 at IRAK4 [3] and on IRAK4 [4] was under 0.01 µM in each case. Moreover, the results for the IC50 in the test on OCI-LY10 and in the test on IL-6 were over 1 µM and under 0.001 µM, respectively.
In the case of `Cn1c(=O)n(C2CCC(=O)NC2=O)c2cccc(C#CCC3CCN(C[C@H]4CC[C@H](C5N=C(NC(=O)c6cnn7ccc(N8CCOC(C)(C)C8)cc67)C(C(F)F)=N5)CC4)CC3)c21` (stereo partly shown) [I-532], the DC50 at IRAK4 [3] and on IRAK4 [4] was 0.01 to 0.1 µM each time. Moreover, the results for the IC50 in the test on OCI-LY10 and in the test on IL-6 were over 1 µM and 0.001 to 0.01 µM, respectively.
Take `CN1C(=O)C(C2CCC(=O)NC2=O)c2cc(CCCOC3CCN(C[C@H]4CC[C@H](C5N=C(NC(=O)c6cnn7ccc(N8C[C@H]9C[C@@H]8CO9)nc67)C(C(F)F)=N5)CC4)CC3)ccc21` (stereo partly shown) [I-553]: the DC50 at IRAK4 [3] lay within 0.01 to 0.1 µM; on IRAK4 [4], 0.1 to 1 µM. The 50% inhibitory concentration (IC50) in the test on OCI-LY10 is over 1 µM; in the test with IL-6 it was 0.001 to 0.01 µM.
Consider `CN(C[C@H]1CC[C@H](C2N=C(NC(=O)c3cnn4ccc(N5C[C@H]6C[C@@H]5CO6)nc34)C(C(F)F)=N2)CC1)C1CCC2(CC1)CC(Cc1cccc3c1n(C)c(=O)n3C1CCC(=O)NC1=O)C2` (stereo partly shown) [I-554], for which the DC50 at IRAK4 [3] is under 0.01 µM; on IRAK4 [4] it was 0.01 to 0.1 µM. The figures for the concentration for half-maximal inhibition (IC50) in the test on OCI-LY10 and with IL-6 were over 1 µM and under 0.001 µM, respectively.
For `C[C@H](C#Cc1cccc2c1N(C)C(=O)C2C1CCC(=O)NC1=O)OC1CCN(C[C@H]2CC[C@H](n3cc(NC(=O)c4cnn5ccc(N6C[C@H]7C[C@@H]6CO7)nc45)c(C(F)F)n3)CC2)CC1` (stereo partly shown) [I-555] the same measures were under 0.01 µM, under 0.01 µM, over 1 µM and 0.001 to 0.01 µM.
